Measurements reported in ChEMBL document CHEMBL5136978, “Research progress in pharmacological activities and structure-activity relationships of tetralone scaffolds as pharmacophore and fluorescent skeleton” (Eur J Med Chem, 2022).
Values after ≈ are worked out from the molar mass of the structure shown.

How the values were obtained:
Staphylococcus aureus = test: Antibacterial activity against Staphylococcus aureus MTCC 096 assessed as bacterial growth inhibition; type: functional
Aspergillus niger = test: Antifungal activity against Aspergillus niger MTCC 343 assessed as fungal growth inhibition; type: functional
Escherichia coli = test: Antibacterial activity against Escherichia coli MTCC 443 assessed as bacterial growth inhibition; type: functional
[1] = test system: Mycobacterium tuberculosis; test: Antibacterial activity against Mycobacterium tuberculosis H37Rv assessed as bacterial growth inhibition; type: functional
MCF7 = test: Antiproliferative activity against human MCF7 cells assessed as cell growth inhibition measured after 5 days by Coulter counter method; type: functional, cell-based; conditions: MCF7, 120 h
A-431 = test: Antiproliferative activity against human A-431 cells assessed as cell growth inhibition incubated for 48 hrs by methylene blue staining based colorimetric assay; type: functional; conditions: A-431, 48 h
Rattus norvegicus = species on record: Rattus norvegicus; test: Selectivity index, ratio of Ki for A2AAR in rat striata to Ki for A1AR in rat whole brain
BGC-823 = test: Cytotoxicity against human BGC-823 cells assessed as cell growth inhibition by MTT assay; type: functional, cell-based
[2] = biological target: T1, Amine oxidase [flavin-containing] B (Homo sapiens, UniProt P27338); test: Inhibition of recombinant human MAO-B using kynuramine as substrate by fluorescence spectrophotometry
T1 sequence (P27338 whole entry): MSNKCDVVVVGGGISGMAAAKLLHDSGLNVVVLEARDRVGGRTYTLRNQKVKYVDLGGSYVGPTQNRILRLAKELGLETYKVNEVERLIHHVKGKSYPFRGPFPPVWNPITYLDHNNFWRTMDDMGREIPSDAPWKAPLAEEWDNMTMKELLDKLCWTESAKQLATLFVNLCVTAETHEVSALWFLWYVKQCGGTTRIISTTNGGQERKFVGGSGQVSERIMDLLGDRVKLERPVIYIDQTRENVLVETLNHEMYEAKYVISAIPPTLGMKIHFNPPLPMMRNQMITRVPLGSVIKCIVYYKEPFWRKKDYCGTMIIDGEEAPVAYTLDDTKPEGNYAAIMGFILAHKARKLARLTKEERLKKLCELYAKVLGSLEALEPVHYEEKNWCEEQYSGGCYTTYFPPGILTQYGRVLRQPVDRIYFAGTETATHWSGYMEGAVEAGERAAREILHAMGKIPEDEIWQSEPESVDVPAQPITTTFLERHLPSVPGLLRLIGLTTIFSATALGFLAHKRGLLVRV

Homo sapiens = species on record: Homo sapiens; test: Selectivity index, ratio of IC50 for recombinant human MAO-A to IC50 for recombinant human MAO-B
[3] = biological target: T2, Amine oxidase [flavin-containing] A (Homo sapiens, UniProt P21397); test: Inhibition of recombinant human MAO-A using kynuramine as substrate by fluorescence spectrophotometry
T2 sequence (P21397 whole entry): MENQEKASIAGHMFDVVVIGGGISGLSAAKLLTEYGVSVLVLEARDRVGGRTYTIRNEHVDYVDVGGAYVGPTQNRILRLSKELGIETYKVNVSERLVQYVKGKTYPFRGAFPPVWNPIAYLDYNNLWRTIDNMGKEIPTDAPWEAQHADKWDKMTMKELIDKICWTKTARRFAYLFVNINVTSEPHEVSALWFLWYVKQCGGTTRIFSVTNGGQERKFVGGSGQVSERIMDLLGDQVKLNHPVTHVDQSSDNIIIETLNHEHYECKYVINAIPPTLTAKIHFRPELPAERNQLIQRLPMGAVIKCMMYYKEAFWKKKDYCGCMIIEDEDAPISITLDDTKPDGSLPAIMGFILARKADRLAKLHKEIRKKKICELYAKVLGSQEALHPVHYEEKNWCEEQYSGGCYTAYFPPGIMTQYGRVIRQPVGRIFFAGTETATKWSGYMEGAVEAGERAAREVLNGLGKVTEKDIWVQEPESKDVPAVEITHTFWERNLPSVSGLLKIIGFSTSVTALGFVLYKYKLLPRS

[4] = biological target: T3, Amine oxidase [flavin-containing] A (Bos taurus, UniProt P21398)
T3 sequence (P21398 whole entry): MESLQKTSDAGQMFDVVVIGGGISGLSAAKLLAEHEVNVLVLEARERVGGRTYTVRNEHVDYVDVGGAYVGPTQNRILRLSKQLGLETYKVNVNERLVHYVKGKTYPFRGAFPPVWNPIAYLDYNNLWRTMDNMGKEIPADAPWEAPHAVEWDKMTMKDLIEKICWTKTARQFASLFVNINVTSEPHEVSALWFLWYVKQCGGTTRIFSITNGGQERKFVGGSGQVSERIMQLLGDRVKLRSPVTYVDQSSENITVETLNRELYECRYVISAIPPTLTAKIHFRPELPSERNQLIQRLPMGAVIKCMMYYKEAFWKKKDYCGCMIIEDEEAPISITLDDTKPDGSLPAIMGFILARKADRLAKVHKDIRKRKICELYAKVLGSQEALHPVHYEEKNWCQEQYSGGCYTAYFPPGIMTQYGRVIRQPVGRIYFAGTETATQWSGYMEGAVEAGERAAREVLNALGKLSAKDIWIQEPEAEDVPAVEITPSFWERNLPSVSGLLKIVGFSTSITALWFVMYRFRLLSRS
Description: Inhibition of recombinant bovine mitochondrial MAO-A using benzylamine or serotonin as substrate incubated for 60 mins by fluorimetry assay

[5] = biological target: Amyloid-beta precursor protein (Homo sapiens) (UniProt P05067); test: Inhibition of amyloid beta (1 to 42) (unknown origin) self aggregation at 10 uM incubated for 48 hrs by thioflavin-T fluorescence method relative to control
Acetylcholinesterase [6] = biological target: T4, Acetylcholinesterase (Homo sapiens, UniProt P22303); test: Inhibition of AChE (unknown origin) using acetylthiocholine iodide as substrate incubated for 5 mins by Ellman's method
Cholinesterase = Cholinesterase (Homo sapiens, UniProt P06276)
Description: Inhibition of BuChE (unknown origin) using acetylthiocholine iodide as substrate incubated for 5 mins by Ellman's method

[7] = Inhibition of recombinant bovine mitochondrial MAO-B using benzylamine or serotonin as substrate incubated for 60 mins by fluorimetry assay; parameters: species or system Bos taurus
[8] = biological target: T5, Peroxisome proliferator-activated receptor gamma (Homo sapiens, UniProt P37231); test: Displacement of isotopically-labeled PPAR-gamma (unknown origin) assessed as inhibition constant by competitive inhibition assay
T5 sequence (P37231 whole entry): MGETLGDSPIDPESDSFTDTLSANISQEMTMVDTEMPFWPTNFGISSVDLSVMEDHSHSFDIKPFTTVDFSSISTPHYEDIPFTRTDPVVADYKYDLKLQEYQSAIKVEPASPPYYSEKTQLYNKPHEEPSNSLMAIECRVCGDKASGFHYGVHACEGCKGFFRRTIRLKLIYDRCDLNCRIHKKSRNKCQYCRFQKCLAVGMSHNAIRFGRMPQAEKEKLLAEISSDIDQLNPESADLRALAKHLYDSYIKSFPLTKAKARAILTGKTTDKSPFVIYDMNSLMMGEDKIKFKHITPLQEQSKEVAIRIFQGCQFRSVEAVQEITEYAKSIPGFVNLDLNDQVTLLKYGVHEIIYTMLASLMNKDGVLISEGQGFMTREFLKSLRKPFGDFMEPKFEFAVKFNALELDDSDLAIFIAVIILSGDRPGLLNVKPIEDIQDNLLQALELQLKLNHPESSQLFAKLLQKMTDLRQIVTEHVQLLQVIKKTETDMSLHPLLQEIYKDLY

Acetylcholinesterase [9] = biological target: T4, Acetylcholinesterase; test: Inhibition of AChE (unknown origin) using […] preincubated for 15 mins by Ellman's method
KB = test: Cytotoxicity aginst human KB cells assessed as cell growth inhibition; type: functional, cell-based
HeLa = test: Cytotoxicity against human HeLa cells assessed as cell growth inhibition incubated for 72 hrs by sulforhodamine B assay; type: functional, cell-based
A549 = test: Cytotoxicity against human A549 cells assessed as cell growth inhibition incubated for 72 hrs by sulforhodamine B assay; type: functional, cell-based; conditions: A549, 72 h

T4 sequence (P22303 whole entry): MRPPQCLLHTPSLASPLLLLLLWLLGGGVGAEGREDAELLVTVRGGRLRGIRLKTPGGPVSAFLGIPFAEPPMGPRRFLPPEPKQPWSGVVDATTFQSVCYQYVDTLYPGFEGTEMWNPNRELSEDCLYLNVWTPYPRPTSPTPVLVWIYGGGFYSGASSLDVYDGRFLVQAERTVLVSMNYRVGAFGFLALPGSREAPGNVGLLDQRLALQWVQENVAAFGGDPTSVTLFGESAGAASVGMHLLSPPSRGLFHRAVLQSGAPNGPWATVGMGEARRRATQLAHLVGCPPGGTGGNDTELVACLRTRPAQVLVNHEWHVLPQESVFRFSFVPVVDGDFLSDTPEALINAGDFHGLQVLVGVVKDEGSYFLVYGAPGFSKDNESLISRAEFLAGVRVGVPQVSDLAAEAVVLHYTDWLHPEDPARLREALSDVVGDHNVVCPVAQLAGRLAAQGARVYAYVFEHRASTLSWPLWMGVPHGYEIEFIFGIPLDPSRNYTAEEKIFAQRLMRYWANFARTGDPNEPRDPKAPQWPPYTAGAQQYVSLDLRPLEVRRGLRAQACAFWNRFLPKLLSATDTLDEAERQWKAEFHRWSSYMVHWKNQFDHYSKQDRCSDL
Chain of Cholinesterase (P06276 whole entry): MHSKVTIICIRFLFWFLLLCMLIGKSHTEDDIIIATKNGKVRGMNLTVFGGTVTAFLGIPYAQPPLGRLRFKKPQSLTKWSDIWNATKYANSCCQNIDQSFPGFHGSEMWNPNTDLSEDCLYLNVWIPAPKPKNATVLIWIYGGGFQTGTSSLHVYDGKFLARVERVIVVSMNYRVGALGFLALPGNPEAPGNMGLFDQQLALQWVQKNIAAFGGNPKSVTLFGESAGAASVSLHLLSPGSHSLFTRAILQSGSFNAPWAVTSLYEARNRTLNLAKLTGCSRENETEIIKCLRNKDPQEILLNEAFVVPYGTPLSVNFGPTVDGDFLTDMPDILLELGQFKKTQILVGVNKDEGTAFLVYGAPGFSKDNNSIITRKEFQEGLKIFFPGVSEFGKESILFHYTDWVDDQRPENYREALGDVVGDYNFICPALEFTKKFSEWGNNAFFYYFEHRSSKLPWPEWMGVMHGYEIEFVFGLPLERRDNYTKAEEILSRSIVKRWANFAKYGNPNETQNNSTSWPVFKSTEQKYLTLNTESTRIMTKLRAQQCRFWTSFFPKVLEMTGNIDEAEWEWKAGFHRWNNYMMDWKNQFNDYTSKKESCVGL
Chain of Amyloid-beta precursor protein (Homo sapiens) (P05067 whole entry): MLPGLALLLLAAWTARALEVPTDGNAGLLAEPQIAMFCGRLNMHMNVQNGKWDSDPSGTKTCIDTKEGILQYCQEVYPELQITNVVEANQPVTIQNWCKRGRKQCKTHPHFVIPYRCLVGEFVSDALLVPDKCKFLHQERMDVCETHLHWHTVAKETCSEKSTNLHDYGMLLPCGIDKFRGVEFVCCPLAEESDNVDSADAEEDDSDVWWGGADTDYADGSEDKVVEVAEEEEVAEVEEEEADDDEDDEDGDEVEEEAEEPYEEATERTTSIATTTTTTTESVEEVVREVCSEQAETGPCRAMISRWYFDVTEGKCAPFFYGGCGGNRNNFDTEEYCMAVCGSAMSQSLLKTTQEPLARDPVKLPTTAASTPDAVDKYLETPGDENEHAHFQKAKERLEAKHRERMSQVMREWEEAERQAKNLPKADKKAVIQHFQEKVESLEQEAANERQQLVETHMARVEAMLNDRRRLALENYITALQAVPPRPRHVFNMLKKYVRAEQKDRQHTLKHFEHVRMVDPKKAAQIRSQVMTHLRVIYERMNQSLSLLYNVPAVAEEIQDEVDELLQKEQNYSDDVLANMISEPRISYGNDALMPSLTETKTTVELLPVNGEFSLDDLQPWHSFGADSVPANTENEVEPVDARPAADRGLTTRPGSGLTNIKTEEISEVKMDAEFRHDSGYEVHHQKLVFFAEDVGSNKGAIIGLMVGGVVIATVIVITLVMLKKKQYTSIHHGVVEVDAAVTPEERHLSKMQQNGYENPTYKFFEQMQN

In the case of CC1SC(N2N=C3c4ccccc4CC[C@H]3[C@H]2c2ccc(Cl)cc2)=NC1=O (some centres not stated), the MIC (Staphylococcus aureus) is reported as 12.5 µg/mL (≈ 31.6 µM), the MIC (Aspergillus niger) is reported as 12.5 µg/mL (≈ 31.6 µM) and the MIC (Escherichia coli) is reported as 12.5 µg/mL (≈ 31.6 µM).

For Cc1cc(O)c2c(c1)C(O)CCC2=O (configuration not stated), the MIC [1] was 100 µg/mL (≈ 520 µM).

With Oc1ccc2c(c1)CCc1c(-c3ccc(F)cc3)n[nH]c1-2 the IC50 (MCF7) was 5.6 µM.

For O=C1/C(=C/c2cccnc2)CCc2ccccc21, the IC50 (A-431) was less than 10 µM.

O=C1/C(=C/c2cccc(O)c2)CCc2c(O)cccc21 showed a Ratio Ki (Rattus norvegicus) of 3.4.

In the case of CCCCOC1CCC(=O)c2c(O)ccc(O)c21 (configuration not stated), the IC50 (BGC-823) is reported as 126 µg/mL (≈ 503 µM).

For N#Cc1ccc(COc2ccc3c(c2)C(=O)CCC3)cc1, the IC50 [2] was 0.047 µM, the Ratio IC50 (Homo sapiens) was 8 and the IC50 [3] was 0.366 µM.

Molecule CCC1C/C(=C\c2cc(OC)c(OC)c(OC)c2Br)C(=O)c2ccccc21 (configuration not stated) has an IC50 [4] of 0.92 µM, an inhibition [5] of 80% and an IC50 (Acetylcholinesterase [6]) of 0.045 µM. The IC50 (Cholinesterase) was 12.5 µM and the IC50 [7] was 0.88 µM.

Molecule CO[C@H]1CCC(=O)c2cccc(O)c21 has an MIC [1] of 6.25 µg/mL (≈ 32.5 µM).

Molecule C=C(C)C1Cc2cc3c(cc2C1)C(=O)C[C@@H](c1ccc(O)c(O)c1)C3 (some centres not stated) has a Ki [8] of 4.7 µM.

Nc1ncc(/C=C2\CCc3c(O)cccc3C2=O)cn1 gave a Ratio Ki (Rattus norvegicus) of 0.14.

Molecule O=C1CC(O)C(O)c2c(O)cccc21 (configuration not stated) has an IC50 (Acetylcholinesterase [9]) of 1410 µM.

CC1SC(N2N=C3c4ccccc4CC[C@H]3[C@H]2c2ccccc2)=NC1=O (some centres not stated) showed an MIC (Staphylococcus aureus) of 6.25 µg/mL (≈ 17.3 µM) and an MIC (Escherichia coli) of 6.25 µg/mL (≈ 17.3 µM).

In the case of COc1ccc2c(c1)CC[C@@H]1C2=NN(C2=NC(=O)C(C)S2)[C@@H]1c1ccccc1 (some centres not stated), the MIC (Staphylococcus aureus) is reported as 6.25 µg/mL (≈ 16 µM) and the MIC (Escherichia coli) is reported as 6.25 µg/mL (≈ 16 µM).

With C[C@@H]1Oc2cccc3c2[C@@H](O1)[C@H](O)CC3=O the IC50 (KB; kb) was 1 ppm.

Work on Cc1ccc(COc2ccc3c(c2)C(=O)CCC3)cc1 yielded a Ratio IC50 (Homo sapiens) of 195.

With CC1(C)C=Cc2cc3c(cc2O1)C[C@H](c1ccc(O)c(O)c1)CC3=O the IC50 (KB; Homo sapiens, KB, read-out: IC50) was 1.4 µM and the Ki [8] was 5.8 µM.

Molecule O=C1c2c(O)cccc2[C@@H](O[C@@H]2O[C@H](CO)[C@@H](O)[C@H](O)[C@H]2O)C[C@@H]1[C@H]1C[C@H](O)c2c(O[C@@H]3O[C@H](CO)[C@@H](O)[C@H](O)[C@H]3O)ccc(O)c2C1=O has an IC50 (HeLa) of 85.1 µM and an IC50 (A549) of 73.7 µM.

Work on O=C1/C(=C/c2ccc(O)cc2)CCc2c(O)cccc21 yielded a Ratio Ki (Rattus norvegicus) of 6.

With COc1cc2c(cc1OC)C(=O)C(CC1CCN(Cc3ccccc3)CC1)C2 (configuration not stated) [DONEPEZIL] the IC50 [4] was 828 µM.
